{"source": "patent US5574059A", "about": "“Treating disorders mediated by vascular smooth muscle cell proliferation” (priority 1995, dated 1996)", "key": {"I2 imidazoline receptors": {"tested_on": "I2 imidazoline receptors", "experiment": "inhibition of 3H-idazoxan (5 nM) binding to rat aortic smooth muscle cell membranes", "settings": "3H-idazoxan 5 nM", "method": "Binding to I2 imidazoline receptors is determined by the following assay. Membranes are prepared from cultured cells for ligand binding as described in Regunathan, S., et al, Biochem. Pharmacol. 45, 1667-1675 (1993) and Regunathan, S., et al, J. Neurosci. Res. 34, 681-688 (1993) and the disclosure in these on this is incorporated herein by reference. In particular, harvested rat aortic smooth muscle cells are homogenized in Hepes-sucrose buffer (pH 7.4) with a Teflon-glass homogenizer and centrifuged at 1000 × g for 10 minutes. The pellets are suspended in ice-cold Tris-HCl buffer (pH 7.7) with 5mM ethylene diamine tetracetic acid and homogenized using a Polytron (Brinkman Instruments) for 10 seconds. The homogenate is centrifuged at 40,000 × g for 30 minutes to produce a membrane pellet. The membrane pellet is washed three times by resuspending in buffer and re-centrifuging. The washed pellet is suspended in fresh Tris-HCl buffer (pH 7.4) to provide approximately 100 μg protein per assay tube. Binding assays are performed in Tris-HCl buffer (pH 7.7) using 5 nM of […]. Non-specific binding is defined by 100 μM of unlabelled idazoxan which will inhibit the specific binding of ^3 H-idazoxan. Thus the binding remaining in the presence 100 μM of idazoxan is due to non-specific binding and this will be substracted from total binding to calculate the specific binding. Following incubation at 25° C. for 30 minutes, reaction is terminated by rapid vacuum filtration over Whatman GF/B filters and washed with 10 ml of ice-cold buffer. Filters are suspended in scintillation fluid and radioactivity counted in a liquid scintillation counter. Membrane protein is assayed by Coomassie Blue method (Pierce) using bovine serum albumin as standard.\nDetermination of inhibition constant (Ki) for each drug is determined as follows: The binding of ^3 H-idazoxan to membranes of vascular smooth muscle cells is determined in the presence of 0.1 nM to 100 μM concentrations of potential drug. The percent inhibition of specific binding of ^3 H-idazoxan by each concentration is calculated and plotted against concentration. The data is analyzed by non-linear curve fitting program, LIGAND and the IC50 value for each potential drug is calculated. The affinity for each drug (Ki) for I2 imidazoline receptors is calculated using the formula Ki =IC50 /1+L/Kd where L is the concentration of ^3 H-idazoxan used for binding and Kd is the dissociation constant for ^3 H-idazoxan for I2 imidazoline receptors. The dissociation constant (Kd) is determined by Scatchard analysis of the saturation binding of ^3 H-idazoxan using the formula [formula] where B and F are the amount of bound and free ligand, respectively, and Bmax is the number of binding sites.\nPrimary cultures of rat-aortic smooth muscle cells were prepared by a modification (described in Erlinge, Do, et al, Am. J. Physiol. 265, H1089-1097, 1993) of the method of Meyer-Lehnert and Schrier (Meyer-Lehnert, H., et al, Hypertension 13,350-361, 1989), the disclosure of these cited articles being incorporated herein by reference. Briefly, rats were killed by anesthetic overdose and the aorta were removed and incubated with collagenase (2 mg/ml) in Dulbecco's modified Eagle's minimum essential medium (DMEM). The vessel was stripped of adventitia, cut longitudinally and the intima scraped away. After further collagenase treatment, the remaining tissue was passed 20 times through 18 and 16 gauge needles. The resulting cell suspension was centrifuged at 500 × g for 5 minutes and resuspended in DMEM containing penicillin (100 units/ml), streptomycin (100 μg/ml), 2 mM L-glutamine and 10% fetal calf serum. The suspended cells were plated in T-75 flasks, cultured until confluent, and subcultured in 100 mm plates. The confluent cells were harvested and membranes were prepared. Cell viability was determined by trypan blue exclusion."}, "[1]": {"experiment": "Example V: patient with Type I diabetes mellitus, overgrowth of retinal vessels", "assay_type": "in vivo, human", "settings": "idazoxan 75 mg/day; UK 14,304 60, naphazoline 125, cirazoline 60, agmatine 900 mg/day", "from_the_text": "A person with Type I diabetes mellitus and maintained on insulin presents with progressive symptoms of loss of visual acuity bilaterally with evidence on opthalmascopic examination of overgrowth of retinal vessels and hemorrhages."}}, "note": "Like-named read-outs stand apart in the source and are kept apart here.", "data": [{"smiles": "c1ccc2c(c1)OCC(C1=NCCN1)O2", "note": "(stereo not drawn) [Idazoxan, 2-[2-(1,4-benzodioxanyl)]-2-imidazoline]", "values": [{"measurement": "Ki", "setting": "I2 imidazoline receptors; \"about\", read-out: Ki, inhibition of 3H-idazoxan binding", "value": "~10", "unit": "nM"}, {"measurement": "Ki", "setting": "I2 imidazoline receptors; Table 2, rat aortic smooth muscle cell membranes, read-out: Ki", "value": "8.5 ± 0.35", "unit": "nM"}, {"measurement": "progression and visual symptoms", "setting": "[1]", "value": "arrest of the progression and some regression of the visual symptoms"}]}]}
